The values that follow are results of earlier work, collected in US11179350B2, “Nutraceutical compositions comprising C60 and Cox-2 inhibitor” (priority 2018, dated 2021).

The conditions of series [1]: more potent than Vitamin C.
A further series deals with rats. The following applies: repeated oral administration (Baati et al. 2012).
The subject of the next series is mice. The following applies: mice (Quick et al. 2008).
Series [2] deals with tumor growth and metastasis. The note with it: Prylutska et al. 2011.

For `c12c3c4c5c1c1c6c7c2c2c8c3c3c9c4c4c%10c5c5c1c1c6c6c%11c7c2c2c7c8c3c3c8c9c4c4c9c%10c5c5c1c1c6c6c%11c2c2c7c3c3c8c4c4c9c5c1c1c6c2c3c41` [C60, Buckminsterfullerene], in series [1], the “antioxidant potency relative to Vitamin C” value is recorded as 172 times. Also, the prolongation of life entry in the series with rats and in the series on mice was “prolong life” in each case. Also, in series [2], the “tumor growth and metastasis” value is “inhibit tumor growth and metastasis”.
